Measurements from paper PMC5218480 (PLoS ONE, 2017).

System: MV-4-11 cells
Test: Gene expression microarray analysis (Affymetrix PrimeView) and GSEA
Format: cell-based, human
Parameters: RFU PODN (11730768_x_at) / Fold change /veh PODN (11730768_x_at) / RFU LINC00158 (11744669_a_at) / Fold change /veh LINC00158 (11744669_a_at) / RFU DUSP10 (11751237_a_at) / Fold change /veh DUSP10 (11751237_a_at) / RFU ID3 (11757404_x_at) / Fold change /veh ID3 (11757404_x_at) / RFU PLEKHG5 (11737974_s_at) / Fold change /veh PLEKHG5 (11737974_s_at) / RFU LRRC4B (11730491_at) / Fold change /veh LRRC4B (11730491_at) / RFU GIMAP4 (11747438_a_at) / Fold change /veh GIMAP4 (11747438_a_at) / RFU KRT8 (11758183_x_at) / Fold change /veh KRT8 (11758183_x_at) / RFU CNN1 (11734310_a_at) / Fold change /veh CNN1 (11734310_a_at) / RFU VPS37D (11726825_at) / Fold change /veh VPS37D (11726825_at) / RFU C10orf10 (11716522_x_at) / Fold change /veh C10orf10 (11716522_x_at) / RFU KIR2DL2 /// KIR2DL4 /// KIR2DL5A /// KIR2DL5B /// KIR2DS1 /// KIR2DS2 /// KIR2DS3 /// KIR2DS4 /// KIR3DL3 /// KIR3DL3 /// KIR3DS1 (11738374_at) / Fold change /veh KIR2DL2 /// KIR2DL4 /// KIR2DL5A /// KIR2DL5B /// KIR2DS1 /// KIR2DS2 /// KIR2DS3 /// KIR2DS4 /// KIR3DL3 /// KIR3DL3 /// KIR3DS1 (11738374_at) / RFU C1QL1 (11718748_at) / Fold change /veh C1QL1 (11718748_at) / RFU TMPRSS4 (11747572_a_at) / Fold change /veh TMPRSS4 (11747572_a_at) / RFU HAMP (11756126_x_at) / Fold change /veh HAMP (11756126_x_at) / RFU RNFT2 (11725882_a_at) / Fold change /veh RNFT2 (11725882_a_at) / RFU NR4A2 (11747474_a_at) / Fold change /veh NR4A2 (11747474_a_at) / RFU ABCC12 (11746883_a_at) / Fold change /veh ABCC12 (11746883_a_at) / RFU TMEM136 (11760407_x_at) / Fold change /veh TMEM136 (11760407_x_at) / RFU CLDN22 /// WWC2 (11732394_at) / Fold change /veh CLDN22 /// WWC2 (11732394_at) / RFU HLA-DPB1 (11760878_x_at) / Fold change /veh HLA-DPB1 (11760878_x_at) / RFU SPINT1 (11716480_a_at) / Fold change /veh SPINT1 (11716480_a_at) / RFU GAP43 (11754022_s_at) / Fold change /veh GAP43 (11754022_s_at) / RFU A4GNT (11735810_at) / Fold change /veh A4GNT (11735810_at) / RFU PRB3 (11715151_x_at) / Fold change /veh PRB3 (11715151_x_at) / RFU TUBB4B (11761932_at) / Fold change /veh TUBB4B (11761932_at) / RFU CAPN14 (11732068_a_at) / Fold change /veh CAPN14 (11732068_a_at) / RFU TMCC2 (11721928_a_at) / Fold change /veh TMCC2 (11721928_a_at) / RFU IRGQ (11745062_a_at) / Fold change /veh IRGQ (11745062_a_at) / RFU FAM174B (11720279_a_at) / Fold change /veh FAM174B (11720279_a_at) / RFU TMPRSS4 (11748680_a_at) / Fold change /veh TMPRSS4 (11748680_a_at) / RFU FAM212B (11763350_a_at) / Fold change /veh FAM212B (11763350_a_at) / RFU PLEKHG5 (11743358_a_at) / Fold change /veh PLEKHG5 (11743358_a_at) / RFU ZSCAN30 (11745921_a_at) / Fold change /veh ZSCAN30 (11745921_a_at) / RFU CMKLR1 (11741424_a_at) / Fold change /veh CMKLR1 (11741424_a_at) / RFU LOC101060620 /// MAPK8IP1 (11723275_at) / Fold change /veh LOC101060620 /// MAPK8IP1 (11723275_at) / RFU SPTSSB (11747773_x_at) / Fold change /veh SPTSSB (11747773_x_at) / RFU PRSS12 (11739890_at) / Fold change /veh PRSS12 (11739890_at) / RFU BIN1 (11741810_x_at) / Fold change /veh BIN1 (11741810_x_at) / RFU WNT11 (11732464_a_at) / Fold change /veh WNT11 (11732464_a_at) / RFU C10orf10 (11716521_a_at) / Fold change /veh C10orf10 (11716521_a_at) / RFU C5orf56 (11738089_at) / Fold change /veh C5orf56 (11738089_at) / RFU CYB561 (11721691_x_at) / Fold change /veh CYB561 (11721691_x_at) / RFU ANKRD19P (11752326_a_at) / Fold change /veh ANKRD19P (11752326_a_at) / RFU OR2T12 /// OR2T33 /// OR2T8 (11738714_s_at) / Fold change /veh OR2T12 /// OR2T33 /// OR2T8 (11738714_s_at) / RFU VCAN (11748164_a_at) / Fold change /veh VCAN (11748164_a_at) / RFU JSRP1 (11732532_at) / Fold change /veh JSRP1 (11732532_at) / RFU KRTAP10-11 (11738290_x_at) / Fold change /veh KRTAP10-11 (11738290_x_at) / RFU MYO3A (11730013_a_at) / Fold change /veh MYO3A (11730013_a_at) / RFU EBF3 (11725865_a_at) / Fold change /veh EBF3 (11725865_a_at) / RFU CAMK2N1 (11719241_x_at) / Fold change /veh CAMK2N1 (11719241_x_at) / RFU C5orf56 (11738088_a_at) / Fold change /veh C5orf56 (11738088_a_at) / RFU OLFML3 (11715873_a_at) / Fold change /veh OLFML3 (11715873_a_at) / RFU LOC100653217 /// NTM (11731650_a_at) / Fold change /veh LOC100653217 /// NTM (11731650_a_at) / RFU MAPK11 (11762145_a_at) / Fold change /veh MAPK11 (11762145_a_at) / RFU FIZ1 (11724087_x_at) / Fold change /veh FIZ1 (11724087_x_at) / RFU OASL (11726364_x_at) / Fold change /veh OASL (11726364_x_at) / RFU SOX15 (11748057_x_at) / Fold change /veh SOX15 (11748057_x_at) / RFU CD79A (11719716_a_at) / Fold change /veh CD79A (11719716_a_at) / RFU HIST1H1D (11736915_at) / Fold change /veh HIST1H1D (11736915_at) / RFU CASKIN2 (11723855_a_at) / Fold change /veh CASKIN2 (11723855_a_at) / RFU LOC730098 (11760151_x_at) / Fold change /veh LOC730098 (11760151_x_at) / RFU OR4N2 (11742367_at) / Fold change /veh OR4N2 (11742367_at) / RFU PRRT2 (11749266_a_at) / Fold change /veh PRRT2 (11749266_a_at) / RFU SNX32 (11753110_a_at) / Fold change /veh SNX32 (11753110_a_at) / RFU CDHR5 (11726645_a_at) / Fold change /veh CDHR5 (11726645_a_at) / RFU RCAN1 (11760418_a_at) / Fold change /veh RCAN1 (11760418_a_at) / RFU FAM167A (11723789_a_at) / Fold change /veh FAM167A (11723789_a_at) / RFU FAM26E (11764081_at) / Fold change /veh FAM26E (11764081_at) / RFU ISYNA1 (11749810_s_at) / Fold change /veh ISYNA1 (11749810_s_at) / RFU ACY1 (11761880_at) / Fold change /veh ACY1 (11761880_at) / RFU 11764098_at / Fold change /veh 11764098_at / RFU SAMD14 (11745864_x_at) / Fold change /veh SAMD14 (11745864_x_at) / RFU NPB (11741838_a_at) / Fold change /veh NPB (11741838_a_at) / RFU TMPRSS6 (11731388_a_at) / Fold change /veh TMPRSS6 (11731388_a_at) / RFU KRTAP10-2 (11738614_at) / Fold change /veh KRTAP10-2 (11738614_at) / RFU ARHGAP8 /// PRR5-ARHGAP8 (11727945_x_at) / Fold change /veh ARHGAP8 /// PRR5-ARHGAP8 (11727945_x_at) / RFU KRTAP5-7 /// NADSYN1 (11734609_at) / Fold change /veh KRTAP5-7 /// NADSYN1 (11734609_at) / RFU RASL12 (11751679_a_at) / Fold change /veh RASL12 (11751679_a_at) / RFU CDKN2B (11736163_a_at) / Fold change /veh CDKN2B (11736163_a_at) / RFU PRF1 (11729649_at) / Fold change /veh PRF1 (11729649_at) / RFU, ZNF638 /// ZNF638-IT1 / Fold change vs veh, ZNF638 /// ZNF638-IT1 / RFU, PANK3 / Fold change vs veh, PANK3 / RFU, SH3YL1 / Fold change vs veh, SH3YL1 / RFU, ZEB2 / Fold change vs veh, ZEB2 / RFU, NRIP1 / Fold change vs veh, NRIP1 / RFU, PTTG1IP / Fold change vs veh, PTTG1IP / RFU, CAPN2 / Fold change vs veh, CAPN2 / RFU, MED14 / Fold change vs veh, MED14 / RFU, SNORA58 / Fold change vs veh, SNORA58 / RFU, C1orf63 / Fold change vs veh, C1orf63 / RFU, LRRFIP1 / Fold change vs veh, LRRFIP1 / RFU, NDUFAF7 / Fold change vs veh, NDUFAF7 / RFU, SLC12A2 / Fold change vs veh, SLC12A2 / RFU, IBTK / Fold change vs veh, IBTK / RFU, ESF1 / Fold change vs veh, ESF1 / Fold change vs veh, TMEM50B / RFU, TAOK1 / Fold change vs veh, TAOK1 / RFU, ACBD3 / Fold change vs veh, ACBD3 / RFU, TMA16 / Fold change vs veh, TMA16 / RFU, RWDD3 / Fold change vs veh, RWDD3 / RFU, BCAT1 / Fold change vs veh, BCAT1 / RFU, EDEM3 / Fold change vs veh, EDEM3 / RFU, TMEM33 / Fold change vs veh, TMEM33 / RFU, WDR75 / Fold change vs veh, WDR75 / RFU, AHCTF1 / Fold change vs veh, AHCTF1 / RFU, TFRC / Fold change vs veh, TFRC / RFU, ZDHHC17 / Fold change vs veh, ZDHHC17 / RFU, NOM1 / Fold change vs veh, NOM1 / RFU, ARL8B / Fold change vs veh, ARL8B / RFU, ZBTB11 / Fold change vs veh, ZBTB11 / RFU, TAMM41 / Fold change vs veh, TAMM41 / RFU, KIAA1704 /// LOC100996395 / Fold change vs veh, KIAA1704 /// LOC100996395 / RFU, ING1 / Fold change vs veh, ING1 / RFU, TRMT61B / Fold change vs veh, TRMT61B / RFU, FUBP3 / Fold change vs veh, FUBP3 / RFU, TP53 / Fold change vs veh, TP53 / RFU, TNKS2 / Fold change vs veh, TNKS2 / RFU, ZFP14 / Fold change vs veh, ZFP14 / RFU, ACTR2 / Fold change vs veh, ACTR2 / RFU, PPP3R1 / Fold change vs veh, PPP3R1 / RFU, PIK3R1 / Fold change vs veh, PIK3R1 / RFU, HNRNPA1 / Fold change vs veh, HNRNPA1 / RFU, RNF170 / Fold change vs veh, RNF170 / RFU, ZNF28 / Fold change vs veh, ZNF28 / RFU, RNGTT / Fold change vs veh, RNGTT / RFU, OGT / Fold change vs veh, OGT / RFU, BRD1 / Fold change vs veh, BRD1 / RFU, MARS / Fold change vs veh, MARS / RFU, ZNF655 / Fold change vs veh, ZNF655 / RFU, FAHD1 / Fold change vs veh, FAHD1 / RFU, BDP1 / Fold change vs veh, BDP1 / RFU, LRRCC1 / Fold change vs veh, LRRCC1 / RFU, ARID1A / Fold change vs veh, ARID1A / RFU, ZNF146 / Fold change vs veh, ZNF146 / RFU, ZNF330 / Fold change vs veh, ZNF330 / RFU, GPN3 / Fold change vs veh, GPN3 / RFU, C9orf123 / Fold change vs veh, C9orf123 / RFU, N4BP2L2 / Fold change vs veh, N4BP2L2 / RFU, ARFIP1 / Fold change vs veh, ARFIP1 / RFU, FAM179B / Fold change vs veh, FAM179B / RFU, BCL10 / Fold change vs veh, BCL10 / RFU, UHRF1BP1L / Fold change vs veh, UHRF1BP1L / RFU, BET1 / Fold change vs veh, BET1 / RFU, CNOT2 / Fold change vs veh, CNOT2 / RFU, ZNF268 / Fold change vs veh, ZNF268 / Fold change vs veh, ZNF507 / RFU, DGCR2 / Fold change vs veh, DGCR2 / RFU, WDSUB1 / Fold change vs veh, WDSUB1 / Fold change vs veh, HSP90B1 /// MIR3652 / RFU, ADSS / Fold change vs veh, ADSS / RFU, GK / Fold change vs veh, GK / RFU, ZNF148 / Fold change vs veh, ZNF148 / RFU, TAF9 / Fold change vs veh, TAF9 / RFU, SLC1A5 / Fold change vs veh, SLC1A5 / RFU, SLMO2 / Fold change vs veh, SLMO2 / RFU, ABCC4 / Fold change vs veh, ABCC4 / RFU, LOC101060439 /// RAP1B / Fold change vs veh, LOC101060439 /// RAP1B / RFU, RFX7 / Fold change vs veh, RFX7 / RFU, GTPBP10 / Fold change vs veh, GTPBP10 / RFU, CNEP1R1 / Fold change vs veh, CNEP1R1 / RFU, BIVM-ERCC5 /// ERCC5 / Fold change vs veh, BIVM-ERCC5 /// ERCC5 / RFU, ILF3 / Fold change vs veh, ILF3 / RFU 11762660_at / Fold change /veh 11762660_at / RFU VCAN (11757783_s_at) / Fold change /veh VCAN (11757783_s_at) / RFU DDX43 (11728927_at) / Fold change /veh DDX43 (11728927_at) / RFU KRT8 (11758188_x_at) / Fold change /veh KRT8 (11758188_x_at) / RFU NKD1 (11759106_at) / Fold change /veh NKD1 (11759106_at) / RFU SRD5A1 (11742802_a_at) / Fold change /veh SRD5A1 (11742802_a_at) / RFU TPSAB1 /// TPSB2 (11721975_s_at) / Fold change /veh TPSAB1 /// TPSB2 (11721975_s_at) / RFU GSTM3 (11746129_a_at) / Fold change /veh GSTM3 (11746129_a_at) / RFU IL23R (11737362_x_at) / Fold change /veh IL23R (11737362_x_at) / RFU TMEM51 (11727254_a_at) / Fold change /veh TMEM51 (11727254_a_at) / RFU PIWIL2 (11732686_x_at) / Fold change /veh PIWIL2 (11732686_x_at) / RFU ORM1 (11744905_x_at) / Fold change /veh ORM1 (11744905_x_at) / RFU CCDC152 (11743942_at) / Fold change /veh CCDC152 (11743942_at) / RFU ECM1 (11717891_a_at) / Fold change /veh ECM1 (11717891_a_at) / RFU IL23R (11748794_a_at) / Fold change /veh IL23R (11748794_a_at) / RFU TNFAIP8L3 (11732012_x_at) / Fold change /veh TNFAIP8L3 (11732012_x_at) / RFU MBOAT4 (11741988_at) / Fold change /veh MBOAT4 (11741988_at) / RFU 11764193_at / Fold change /veh 11764193_at / RFU TMEM53 (11763286_at) / Fold change /veh TMEM53 (11763286_at) / RFU MAGEB2 (11727129_at) / Fold change /veh MAGEB2 (11727129_at) / RFU TMEM200A (11744735_a_at) / Fold change /veh TMEM200A (11744735_a_at) / RFU CCDC152 (11751479_a_at) / Fold change /veh CCDC152 (11751479_a_at) / RFU FAM211A (11726209_a_at) / Fold change /veh FAM211A (11726209_a_at) / RFU RGS16 (11746705_a_at) / Fold change /veh RGS16 (11746705_a_at) / RFU VCAN (11755009_s_at) / Fold change /veh VCAN (11755009_s_at) / RFU RHOB (11743442_s_at) / Fold change /veh RHOB (11743442_s_at) / RFU RGS16 (11720943_a_at) / Fold change /veh RGS16 (11720943_a_at) / RFU RGS16 (11720944_at) / Fold change /veh RGS16 (11720944_at) / RFU, VPS4B / Fold change vs veh, VPS4B / RFU, CREB1 / Fold change vs veh, CREB1 / RFU, DNAJC13 / Fold change vs veh, DNAJC13 / RFU, GNAQ / Fold change vs veh, GNAQ / RFU, CDK5R1 / Fold change vs veh, CDK5R1 / RFU, ZRANB3 / Fold change vs veh, ZRANB3 / RFU, CUL4A / Fold change vs veh, CUL4A / RFU, CCNY / Fold change vs veh, CCNY / RFU, UFL1 / Fold change vs veh, UFL1 / RFU, COG3 / Fold change vs veh, COG3 / RFU, DIAPH2 / Fold change vs veh, DIAPH2 / RFU, SKA2 / Fold change vs veh, SKA2 / RFU, AFF3 / Fold change vs veh, AFF3 / RFU, LMF1 / Fold change vs veh, LMF1 / RFU, IPO11 / Fold change vs veh, IPO11 / RFU, DFFB / Fold change vs veh, DFFB / RFU, FOXP1 / Fold change vs veh, FOXP1 / RFU, CARD8 / Fold change vs veh, CARD8 / RFU, STRN3 / Fold change vs veh, STRN3 / RFU, ADK / Fold change vs veh, ADK / RFU, RASSF2 / Fold change vs veh, RASSF2 / RFU, WIPF1 / Fold change vs veh, WIPF1 / RFU, LARP1B / Fold change vs veh, LARP1B / RFU, RASA1 / Fold change vs veh, RASA1 / RFU, RB1 / Fold change vs veh, RB1 / RFU, PPFIA1 / Fold change vs veh, PPFIA1 / RFU, MAT2A / Fold change vs veh, MAT2A / RFU, CCT5 / Fold change vs veh, CCT5 / RFU, WDR92 / Fold change vs veh, WDR92 / RFU, CUX1 / Fold change vs veh, CUX1 / RFU, TTC7A / Fold change vs veh, TTC7A / RFU, TMEM135 / Fold change vs veh, TMEM135 / RFU, DEPTOR / Fold change vs veh, DEPTOR / RFU, CPM / Fold change vs veh, CPM / RFU, DNAJB6 / Fold change vs veh, DNAJB6 / RFU, CACNA2D3 / Fold change vs veh, CACNA2D3 / RFU, DTX4 / Fold change vs veh, DTX4 / RFU, TFCP2 / Fold change vs veh, TFCP2 / RFU, GMCL1 /// GMCL1P1 / Fold change vs veh, GMCL1 /// GMCL1P1 / RFU, AEBP2 / Fold change vs veh, AEBP2 / RFU, SNHG1 /// SNORD22 /// SNORD25 /// SNORD26 /// SNORD27 /// SNORD28 /// SNORD29 /// SNORD31 / Fold change vs veh, SNHG1 /// SNORD22 /// SNORD25 /// SNORD26 /// SNORD27 /// SNORD28 /// SNORD29 /// SNORD31 / Fold change (Aza/veh), C12orf56 (ProbeSet 11735607_a_at) / Fold change (ACY-1035/veh), C12orf56 (ProbeSet 11735607_a_at) / Fold change (Aza/veh), FGFR1OP (ProbeSet 11751329_s_at) / Fold change (ACY-1035/veh), FGFR1OP (ProbeSet 11751329_s_at) / Fold change (Aza/veh), VPS36 (ProbeSet 11739960_a_at) / Fold change (ACY-1035/veh), VPS36 (ProbeSet 11739960_a_at) / RFU SYPL1 (11715823_x_at) / Fold change /veh SYPL1 (11715823_x_at) / RFU IGFBP7 (11715501_s_at) / Fold change /veh IGFBP7 (11715501_s_at) / RFU REEP3 (11722064_at) / Fold change /veh REEP3 (11722064_at) / RFU IGLL1 (11728026_x_at) / Fold change /veh IGLL1 (11728026_x_at): dose or concentration left out as unconfirmed
Settings: MV-4-11 cells, 48 hours

Question: `Nc1ccc(-c2cccs2)cc1NC(=O)c1ccc2c(c1)cc(C1CC1)n2CCN1CCOCC1` [ACY-1035] was tested. Which “RFU TMCC2 (11721928_a_at)” value did it give?
Answer: The value was 13.59 RFU.
